Read-outs that look alike come from different tables or passages of the source.
Experiments:
OATP1A2 = biological target: T1, OATP1A2 (Homo sapiens, UniProt P46721); assay: Uptake in CHO-OATP1A2 overexpressing cells; type: cell-based; conditions: CHO-OATP1A2 vs mock, 10 min; IMM-H004G 10 μmol/L
T1 construct: host or cells: CHO
T1 sequence (P46721 1-670): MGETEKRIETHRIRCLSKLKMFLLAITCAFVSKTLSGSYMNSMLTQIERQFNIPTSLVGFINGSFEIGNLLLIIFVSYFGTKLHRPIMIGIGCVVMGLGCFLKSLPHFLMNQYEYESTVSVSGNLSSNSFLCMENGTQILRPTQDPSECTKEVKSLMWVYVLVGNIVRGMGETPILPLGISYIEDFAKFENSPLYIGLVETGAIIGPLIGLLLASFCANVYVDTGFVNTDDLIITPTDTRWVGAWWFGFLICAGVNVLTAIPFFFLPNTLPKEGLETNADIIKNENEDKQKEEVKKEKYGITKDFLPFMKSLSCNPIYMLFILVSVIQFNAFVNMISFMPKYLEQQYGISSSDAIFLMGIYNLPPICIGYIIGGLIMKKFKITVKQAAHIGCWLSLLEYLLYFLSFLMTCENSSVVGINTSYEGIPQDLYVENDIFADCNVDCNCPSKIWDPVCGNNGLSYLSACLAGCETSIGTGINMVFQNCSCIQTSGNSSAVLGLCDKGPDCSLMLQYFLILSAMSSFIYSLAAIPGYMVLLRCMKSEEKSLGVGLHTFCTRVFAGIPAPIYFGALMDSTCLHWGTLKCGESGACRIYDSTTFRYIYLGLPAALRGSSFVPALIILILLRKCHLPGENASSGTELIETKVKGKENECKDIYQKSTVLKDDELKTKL
Source text: (§1) CHO cells and MDCKⅡ cells were stably transfected with lentiviruses carrying human SCLO1A2 (encoding OATP1A2) and SCLO2B1 (encoding OATP2B1), respectively. Cell transfected with lentiviruses carrying empty vectors served as control. Lentiviral plasmid packages were obtained from OBiO Technology (Shanghai, China), and procedures followed the instructions of the virus manual. Stably transfected cells were routinely grown in a 100 mm dish in DMEM with 10% fetal bovine serum. Prior to the experiments, the seeding density of the overexpressing cells in 24-well plates was 4 × 10^5 cells per well, and the medium was supplemented with 2 mM sodium butyrate for 24 h. The cultured cells were washed twice with prewarmed HBSS after removing the medium and then treated with 10 μmol/L IMM-H004G and 100 μmol/L rifampicin (or an equal amount of solvent dimethyl sulfoxide) for 10 min. After incubation, the cells were washed four times with cold HBSS. Follow-up sample processing procedures were as described in Section 2.3.1. E17βG (5 μmol/L) and rosuvastatin (10 μmol/L) were used as positive substrates in CHO-OATP1A2 and MDCKⅡ-OATP2B1 cells, respectively. The MDCKⅡ-MDR1 cells were previously established by our laboratory.

OATP2B1 = biological target: T2, OATP2B1 (Homo sapiens, UniProt O94956); assay: Uptake in MDCKⅡ-OATP2B1 overexpressing cells; type: cell-based; conditions: MDCKⅡ-OATP2B1 vs mock, 10 min; IMM-H004G 10 μmol/L
T2 construct: host or cells: MDCKII
T2 sequence (O94956 1-709): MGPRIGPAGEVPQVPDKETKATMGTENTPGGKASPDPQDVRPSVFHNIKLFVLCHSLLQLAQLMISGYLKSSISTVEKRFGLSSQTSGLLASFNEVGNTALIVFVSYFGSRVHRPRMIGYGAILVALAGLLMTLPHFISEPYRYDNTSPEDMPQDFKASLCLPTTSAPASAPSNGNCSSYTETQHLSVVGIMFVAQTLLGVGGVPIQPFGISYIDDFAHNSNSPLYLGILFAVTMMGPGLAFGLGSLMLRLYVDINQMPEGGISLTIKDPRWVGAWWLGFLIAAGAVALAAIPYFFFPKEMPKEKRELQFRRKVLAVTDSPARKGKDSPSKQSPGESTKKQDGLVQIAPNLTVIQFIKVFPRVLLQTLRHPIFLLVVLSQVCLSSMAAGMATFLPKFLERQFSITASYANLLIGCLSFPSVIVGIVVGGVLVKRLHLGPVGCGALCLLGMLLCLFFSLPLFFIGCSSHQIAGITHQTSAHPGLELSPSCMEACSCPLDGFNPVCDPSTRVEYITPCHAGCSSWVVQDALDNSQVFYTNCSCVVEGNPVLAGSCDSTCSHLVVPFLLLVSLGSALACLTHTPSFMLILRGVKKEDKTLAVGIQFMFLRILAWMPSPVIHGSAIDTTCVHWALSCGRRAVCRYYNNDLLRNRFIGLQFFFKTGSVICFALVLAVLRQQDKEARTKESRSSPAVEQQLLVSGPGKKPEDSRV
Source text: as §1

P-gp = assay: Bidirectional transport in MDCKⅡ-MDR1 cell monolayers; type: in vitro ADME; conditions: dog
Description: To further validate the effect of P-gp on the transport of IMM-H004G or IMM-H004, MDCKⅡ-MDR1 cells were seeded onto polycarbonate membrane transwell inserts in 24-well plates and used for transport studies after 5 days or when the effective transepithelial electric resistance (TEER) values exceeded 300 Ω·cm^2. The monolayers were initially rinsed twice with HBSS. Subsequently, IMM-H004G or IMM-H004 (10 µmol/L) was added to either the apical or basolateral side of the monolayer. Aliquots of 50 µL were collected from the opposite compartment at various time points, covering a maximum duration of 120 min. Digoxin (5 μmol/L) was used as a positive substrate, while PSC833 (5 µmol/L) was used as an inhibitor in MDCKⅡ-MDR1 cells. The apparent permeability value (Papp) was calculated using the following equation:(2) Papp=dQ/dt/AC0 where dQ/dt is the slope of the cumulative transport amount over time during the study period. A is the base area of the insert, and C0 is the initial addition concentration.
The efflux ratio (ER) was calculated as follows:ER = Papp(B−A)/Papp(A−B) (3)

**Q.** COc1cc(OC2OC(C(=O)O)C(O)C(O)C2O)cc2oc(=O)c(N3CCN(C)CC3)c(C)c12 (stereo not shown) [IMM-H004G] was tested. Which “uptake increase in OATP1A2-overexpressing cells compared to control cells” value (OATP1A2) did it give?
**A.** The value was 9.7 fold.

**Q.** And the “uptake increase in OATP2B1-overexpressing cells compared to control cells” value (OATP2B1)?
**A.** The value was 190 fold.

**Q.** COc1cc(O)cc2oc(=O)c(N3CCN(C)CC3)c(C)c12 [IMM-H004] was tested. Which efflux ratio at 120 min (P-gp; MDCK-MDR1, with PSC833 5 µmol/L, MDCKⅡ-MDR1, PSC833 5 µmol/L, read-out: efflux ratio (ER) in the presence of PSC833) did it give?
**A.** The efflux ratio at 120 min was 1.1.

**Q.** And the efflux ratio at 120 min (P-gp; MDCK-MDR1, MDCKⅡ-MDR1, no inhibitor, IMM-H004 10 µmol/L, digoxin 5 μmol/L, read-out: efflux ratio (ER))?
**A.** The efflux ratio at 120 min was 2.96.

— PMC10975012, “The Active Glucuronide Metabolite of the Brain Protectant IMM-H004 with Poor Blood–Brain Barrier Permeability Demonstrates a High Partition in the Rat Brain via Multiple Mechanisms” (Pharmaceutics, 2024)
